Experimental data: the NIST ThermoML archive (doi:10.1016/j.fluid.2013.09.056)
Numbers after ± are expanded uncertainties.

Details: Liquid, Closed cell (Static) method

SMILES | vapor or sublimation pressure (283.15 K) [kPa] | vapor or sublimation pressure (293.15 K) [kPa] | vapor or sublimation pressure (303.15 K) [kPa] | vapor or sublimation pressure (313.15 K) [kPa] | vapor or sublimation pressure (323.15 K) [kPa]
C=C(F)C(F)(F)F [2,3,3,3-tetrafluoro-1-propene] | 436.5 ± 7 | 591 ± 7.1 | 780.5 ± 7.1 | 1015.6 ± 7.2 | 1300.7 ± 7.2
FC(C(F)(F)F)C(F)(F)F [1,1,1,2,3,3,3-heptafluoropropane] | 278.9 ± 7 | 388 ± 7 | 524.5 ± 7 | 699 ± 7.1 | 912.4 ± 7.1
CC(F)(F)F [1,1,1-trifluoroethane] | 838.6 ± 7.1 | 1107.9 ± 7.2 | 1435.2 ± 7.3 | 1834 ± 7.5 | 2309.7 ± 7.8
FCC(F)(F)F [1,1,1,2-tetrafluoroethane] | 414 ± 7 | 571.5 ± 7 | 767 ± 7.1 | 1013 ± 7.2 | 1314.7 ± 7.3
